Earlier results in patent publication US20070110685A1, “Combination therapy for the treatment of immunoinflammatory disorders” (priority 2005, published 2007).

absorption after oral administration: absorbed rapidly and completely
Compound: CO[C@H]1C[C@@H]2CC[C@@H](C)[C@@](O)(O2)C(=O)C(=O)N2CCCC[C@H]2C(=O)O[C@H]([C@H](C)C[C@@H]2CC[C@@H](O)[C@H](OC)C2)CC(=O)[C@H](C)/C=C(\C)[C@@H](O)[C@@H](OC)C(=O)[C@H](C)C[C@H](C)/C=C/C=C/C=C/1C [Rapamycin]
